US11000033B2, “Ketone or oxime compound, and herbicide” (NISSAN CHEMICAL CORPORATION, priority 2014, dated 2021)

Tests used:
Assay type in all cases: in vivo
[1] = tested on: Echinochloa oryzacola Vasing.; assay: Test Example 1: herbicidal activity, application before weed generation in submerged conditions (symbol A); conditions: application herbicide amount 320 g/ha
Outline: (§1)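 Paddy pre-emergence test. Formulated emulsion, water-diluted to a predetermined rate, is applied to floodwater on sowing day; rice transplanted at 2.5 leaves. Effect read at 3 weeks on a 0–5 herbicidal-ratio scale.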

Scirpus juncoides = assay: Test Example 1: herbicidal activity, application before weed generation in submerged conditions (symbol B); conditions: application herbicide amount 320 g/ha
Outline: as §1

Monochoria vaginalis = assay: Test Example 2: herbicidal activity, application during weed generation in submerged conditions (symbol C); conditions: Table 23; application herbicide amount 320 g/ha; grade 0-5 by criteria of Test Example 1
Outline: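 Visual herbicidal ratings, taken three weeks after dosing, reflect post-emergence water-surface application to seedlings at one to two leaves. Conditions: co-sown weeds in alluvial soil flooded to 4 cm, greenhouse held at 25° C. to 30° C.; compound given as water-diluted emulsion at a fixed herbicide amount.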

Leptochloa chinensis = assay: Test Example 3: herbicidal effect by foliage application, Wagner pot (symbol D); conditions: application herbicide amount 320 g/ha; for D (Leptochloa chinensis) herbicidal effect grade: Table 24
Outline: (§2)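 Herbicidal activity was rated three weeks after a foliar spray of diluted emulsion concentrate, applied at a predetermined dose to plants grown for 14 days from seed in waterlogged alluvial soil within a 25–30 °C greenhouse.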

Cyperus difformis = assay: Test Example 3: herbicidal effect by foliage application, Wagner pot (symbol E); conditions: application herbicide amount 320 g/ha; for E herbicidal effect grade: Table 24
Outline: as §2

Digitaria ciliaris [2] = assay: Test Example 4: herbicidal effect by soil treatment (symbol F); conditions: application herbicide amount 320 g/ha
Outline: (§3)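 Seeds were sown in sterilized diluvial soil, covered with about 1.5 cm of soil, and the soil surface was sprayed with a water-diluted emulsion of the compound at a predetermined rate. Plants grew in a greenhouse at 25° C. to 30° C.; effects were scored visually 3 weeks after application.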

Setaria viridis [3] = assay: Test Example 4: herbicidal effect by soil treatment (symbol G); conditions: application herbicide amount 320 g/ha
Outline: as §3

[4] = tested on: Echinochloa crus-galli var. crus-galli; assay: Test Example 4: herbicidal effect by soil treatment (symbol H); conditions: application herbicide amount 320 g/ha
Outline: as §3

Veronica persica = assay: Test Example 4: herbicidal effect by soil treatment (symbol R); conditions: application herbicide amount 320 g/ha
Outline: as §3

beet = assay: Test Example 4: effect on crop by soil treatment (symbol f); conditions: application herbicide amount 320 g/ha
Outline: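 Steps: fill box with sterilized diluvial soil; sow seed spot-like; cover with ~1.5 cm soil; grow in greenhouse (25° C. to 30° C.).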

Digitaria ciliaris [5] = assay: Test Example 5: herbicidal effect by foliage application, plastic box (symbol F); conditions: 320 g/ha, 3 weeks after application
Outline: (§4)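 After sowing into sterilized diluvial soil and growing two weeks under glass at 25° C. to 30° C., seedlings receive a uniform foliar spray of diluted emulsion. Damage is judged visually three weeks on.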

Setaria viridis [6] = assay: Test Example 5: herbicidal effect by foliage application, plastic box (symbol G); conditions: 320 g/ha, 3 weeks after application
Outline: as §4

Avena fatua = assay: Test Example 5: herbicidal effect by foliage application, plastic box (symbol I); conditions: 320 g/ha, 3 weeks after application
Outline: as §4

Stellaria media = assay: Test Example 5: herbicidal effect by foliage application, plastic box (symbol P); conditions: 320 g/ha, 3 weeks after application
Outline: as §4

Structure (SMILES) | Herbicidal effect grade, A: Echinochloa oryzacola Vasing. [1] | Herbicidal effect grade, B: Scirpus juncoides (Scirpus juncoides) | Herbicidal effect grade, C: Monochoria vaginalis (Monochoria vaginalis) | herbicidal effect on D (Leptochloa chinensis), grade 0-5 (Leptochloa chinensis) | herbicidal effect on E, grade 0-5 (Cyperus difformis) | Herbicidal effect grade, F: Digitaria ciliaris (Digitaria ciliaris [2]) | Herbicidal effect grade, G: Setaria viridis (Setaria viridis [3]) | Herbicidal effect grade, H: Echinochloa crus-galli var. crus-galli [4] | Herbicidal effect grade, R: Veronica persica (Veronica persica) | Effect on crop grade, f: beet (beet) | F: Digitaria ciliaris, herbicidal effect (criteria of Test Example 1) (Digitaria ciliaris [5]) | G: Setaria viridis, herbicidal effect (criteria of Test Example 1) (Setaria viridis [6]) | I: Avena fatua, herbicidal effect (criteria of Test Example 1) (Avena fatua) | P: Stellaria media, herbicidal effect (criteria of Test Example 1) (Stellaria media) | D (Leptochloa chinensis) herbicidal effect grade (Leptochloa chinensis) | E herbicidal effect grade (Cyperus difformis) | F: Digitaria ciliaris, herbicidal effect grade (Digitaria ciliaris [5]) | G: Setaria viridis, herbicidal effect grade (Setaria viridis [6]) | I: Avena fatua, herbicidal effect grade (Avena fatua) | P: Stellaria media, herbicidal effect grade (Stellaria media)
CC(=O)CC1CC(O)=C(c2c(C)cc(-n3cccn3)cc2C)C1=O (stereo not drawn) [7-024] | 2 (Herbicidal ratio of 20% or higher and lower than 40%) | 1 (Herbicidal ratio of 5% or higher and lower than 20%) | 0 (Herbicidal ratio of 5% or lower (almost no effect)) | 5 (Herbicidal ratio of 90% or more (almost completely withered)) | 2 (Herbicidal ratio of 20% or higher and lower than 40%) | 4 (Herbicidal ratio of 70% or higher and lower than 90%) | 0 (Herbicidal ratio of 5% or lower (almost no effect)) | 0 (Herbicidal ratio of 5% or lower (almost no effect)) | 0 (Herbicidal ratio of 5% or lower (almost no effect)) | 0 (Herbicidal ratio of 5% or lower (almost no effect)) | 0 (Herbicidal ratio of 5% or lower (almost no effect)) | 0 (Herbicidal ratio of 5% or lower (almost no effect)) | 2 (Herbicidal ratio of 20% or higher and lower than 40%) | 0 (Herbicidal ratio of 5% or lower (almost no effect)) | – | – | – | – | – | –
COc1cc(Br)cc(C)c1C1=C(O)CC(CC(C)=O)C1=O (stereo not drawn) [7-027, 2-(4-bromo-2-methoxy-6-methylphenyl)-3-hydroxy-5-(2-oxopropyl)cyclopent-2-enone] | 4 (Herbicidal ratio of 70% or higher and lower than 90%) | 0 (Herbicidal ratio of 5% or lower (almost no effect)) | 2 (Herbicidal ratio of 20% or higher and lower than 40%) | – | – | 5 (Herbicidal ratio of 90% or more (almost completely withered)) | 5 (Herbicidal ratio of 90% or more (almost completely withered)) | 5 (Herbicidal ratio of 90% or more (almost completely withered)) | 0 (Herbicidal ratio of 5% or lower (almost no effect)) | 0 (Herbicidal ratio of 5% or lower (almost no effect)) | 5 (Herbicidal ratio of 90% or more (almost completely withered)) | 5 (Herbicidal ratio of 90% or more (almost completely withered)) | 5 (Herbicidal ratio of 90% or more (almost completely withered)) | 0 (Herbicidal ratio of 5% or lower (almost no effect)) | 5 (Herbicidal ratio of 90% or more (almost completely withered)) | 4 (Herbicidal ratio of 70% or higher and lower than 90%) | – | – | – | –
CC(=O)C1CC(O)=C(c2c(C)cc(C)cc2C)C1=O (stereo not drawn) [8-001] | 0 (Herbicidal ratio of 5% or lower (almost no effect)) | 0 (Herbicidal ratio of 5% or lower (almost no effect)) | 0 (Herbicidal ratio of 5% or lower (almost no effect)) | – | – | 0 (Herbicidal ratio of 5% or lower (almost no effect)) | 0 (Herbicidal ratio of 5% or lower (almost no effect)) | 0 (Herbicidal ratio of 5% or lower (almost no effect)) | 0 (Herbicidal ratio of 5% or lower (almost no effect)) | 0 (Herbicidal ratio of 5% or lower (almost no effect)) | – | – | – | – | 0 (Herbicidal ratio of 5% or lower (almost no effect)) | 0 (Herbicidal ratio of 5% or lower (almost no effect)) | 1 (Herbicidal ratio of 5% or higher and lower than 20%) | 1 (Herbicidal ratio of 5% or higher and lower than 20%) | 0 (Herbicidal ratio of 5% or lower (almost no effect)) | 0 (Herbicidal ratio of 5% or lower (almost no effect))
